Consider ten compounds from ChEMBL document CHEMBL1152024, “Synthesis and bronchospasmolytic properties of some pyridazinone derivatives” (1993).

The first experiment is filed under the species Cavia porcellus. Briefly: Tested in vitro for its effect on tracheal relaxation in guinea pig trachea, activity expressed as pD2 (-log of molar concentration which gives a half maximal relaxing effect). In kind it is functional.
As for `Oc1ccc(N2CCN(CC(O)c3ccc(Cl)c(Cl)c3)CC2)nn1` (configuration not stated), the pD2 stood at 4.79.

`Cn1c(=O)c2nc[nH]c2n(C)c1=O.O` [THEOPHYLLINE] returned a pD2 of 4.

The next experiment is filed under the species Cavia porcellus. The experiment can be described thus: Tested in vitro for its effect on tracheal relaxation in guinea pig trachea, activity expressed as percentage increase in the velocity of the flux of perfusion at concentration 10 ug/mL. Type of experiment: functional.
`Cn1c(=O)c2nc[nH]c2n(C)c1=O.O` [THEOPHYLLINE]: the Increase is listed as 55%.

For a further experiment, the species on record is Cavia porcellus. Briefly: Tested in vitro for its effect on tracheal relaxation in guinea pig trachea, activity expressed as percentage increase in the velocity of the flux of perfusion at concentration 30 ug/mL. In kind it is functional.
With `CC(=O)Nc1ccc(C(O)CN2CCN(CCn3nc(Cl)ccc3=O)CC2)cc1Cl` (configuration not stated), the Increase is 4%.

`O=c1ccc(Cl)nn1CCN1CCN(CC(O)c2ccc(Cl)c(Cl)c2)CC1` (configuration not stated) displayed an Increase of 46%.

Turning to `Oc1nncc(N2CCN(CC(O)c3ccc(Cl)c(Cl)c3)CC2)c1Cl` (configuration not stated), the Increase stood at 3%.

The compound `Oc1ccc(N2CCN(CC(O)c3ccc(Cl)c(Cl)c3)CC2)nn1` (configuration not stated) showed an Increase of 87%.

`Nc1c(Cl)cc(C(O)CN2CCN(c3cnnc(O)c3Cl)CC2)cc1Cl` (configuration not stated) registered an Increase of 19%.

For the compound `CC(=O)Nc1ccc(C(O)CN2CCN(c3ccc(O)nn3)CC2)cc1Cl` (configuration not stated), the Increase was 23%.

The compound `Nc1c(Cl)cc(C(O)CN2CCN(c3ccc(O)nn3)CC2)cc1Cl` (configuration not stated) showed an Increase of 54%.

Turning to `Nc1c(Cl)cc(C(O)CN2CCN(CCn3nc(Cl)ccc3=O)CC2)cc1Cl` (configuration not stated), the Increase is 22%.

With `CC(=O)Nc1ccc(C(O)CN2CCN(c3cnnc(O)c3Cl)CC2)cc1Cl` (configuration not stated), the Increase turned out to be 4%.
